Measurements from patent publication US7517996B2, “Azole compound” (Ajinomoto Co., Inc., priority 2003, dated 2009).

Columns and labels:
[1] = Inhibition of LPA-induced intracellular Ca2+ concentration increase (FLIPR); type: cell-based; conditions: LPA final concentration 5 μM; rat hepatic stellate cell derived myofibroblast like clone; Fluo-3, FLIPR
From the text: (1) Establishment of Myofibroblast Like Cell Strain Derived from Rat Hepatic Stellate Cell Fraction A stellate cell fraction was obtained from the liver of male Wistar rat according to a conventional method (European J. Biochem., 1993, vol. 213, p. 815). After subculture for several generations, the cell was cloned by limiting dilution. Well grown 24 clones that formed colonies were isolated. These clones were stained with αSMA antibody and confirmed to be all positive and to have Myofibroblast like properties. […] (2) Measurement of Cell Activation (Intracellular Ca^2+ Concentration Increasing Action)-Inhibitory Activity The above-mentioned cells were cultured overnight in a 384 well plate at 24,000 cells/well and the medium was removed. An assay buffer (0.1% BSA, 20 mM HEPES, 1×HBSS, 2.5 mM Probenecid) containing 4 μM of Fluo-3, AM (Biotium) was added, and the cells were stained at 37° C. for 1 hour. Following the buffer containing the dye reagent was removed, and an assay buffer was added, intracellular Ca^2+ concentration was measured with FLIPR (Molecular Devices). Adding a test substance and LPA at the final concentration of 5 μM, the inhibitory action of the test substance on the increase in the intracellular Ca^2+ concentration by LPA was examined. The increase in the intracellular Ca^2+ concentration by LPA addition without test substance was taken as 100%, that without the addition of LPA was taken as 0%, and the substrate's concentration (IC50) at inhibiting increase in the intracellular Ca^2+ concentration by 50% was determined.

EDG2 = EDG2 (Homo sapiens, UniProt Q92633); conditions: as described in WO01/060819; cited from earlier work
Sequence of EDG2 (Q92633 whole entry): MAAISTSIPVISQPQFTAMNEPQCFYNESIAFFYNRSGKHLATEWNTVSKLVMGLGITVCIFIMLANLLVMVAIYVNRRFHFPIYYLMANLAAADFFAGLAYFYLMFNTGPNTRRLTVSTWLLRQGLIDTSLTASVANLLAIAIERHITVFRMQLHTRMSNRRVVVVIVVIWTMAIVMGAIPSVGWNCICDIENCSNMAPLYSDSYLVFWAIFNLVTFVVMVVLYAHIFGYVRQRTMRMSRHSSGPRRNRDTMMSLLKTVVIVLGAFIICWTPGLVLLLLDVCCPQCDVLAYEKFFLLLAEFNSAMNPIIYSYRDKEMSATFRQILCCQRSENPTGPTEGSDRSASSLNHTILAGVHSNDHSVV

[2] = system: peripheral circulation disorder model induced by lactic acid; conditions: animal model of peripheral arterial obstruction; as described in WO01/060819; cited from earlier work

SMILES: COC(=O)CCSCc1ccc(-c2onc(C)c2NC(=O)OC(C)c2ccccc2Cl)cc1 (stereo not drawn) [Example 115, methyl 3-([4-[4-([[1-(2-chlorophenyl)ethoxy]carbonyl]amino)-3-methyl-5-isoxazolyl]benzyl]-sulfanyl)propanoate]
- IC50 [1]: 836 nM
- EDG2 antagonistic action (EDG2): strong EDG2 antagonistic action
- action in peripheral circulation disorder model induced by lactic acid [2]: improving action
